Key:
[1] = target: 5-hydroxytryptamine receptor 1B (Homo sapiens, UniProt P28222); assay: 5-HT1BR cAMP Secondary Messenger Agonist Assay
From the text: The 5-HT1BR cAMP secondary messenger agonist assay used a panel of CHO-K1 cell lines stably expressing non-tagged GPCRs that endogenously signal through cAMP. Hit Hunter cAMP assays monitored the activation of a GPCR via Gi and Gs secondary messenger signaling in a homogenous, non-imaging assay format using DiscoverX Enzyme Fragment Complementation (EFC) with β-galactosidase as the functional endpoint.

[2] = Human Serotonin Transporter (SERT, SLC6A4) Functional Antagonist Uptake Assay
Method: (§1) Benzofuran derivatives were evaluated for inhibiting the human 5-HT transporter (hSERT) as expressed in CHO cells using an antagonist radioligand assay (Tatsumi, M. et al. (1999), Eur. J. Pharmacol., 368: 277-283).

[3] = target: Sodium-dependent serotonin transporter (Homo sapiens, UniProt P31645); assay: as above
Method: as §1

5-hydroxytryptamine receptor 1B, sequence (P28222 whole entry, the tested form may be a part): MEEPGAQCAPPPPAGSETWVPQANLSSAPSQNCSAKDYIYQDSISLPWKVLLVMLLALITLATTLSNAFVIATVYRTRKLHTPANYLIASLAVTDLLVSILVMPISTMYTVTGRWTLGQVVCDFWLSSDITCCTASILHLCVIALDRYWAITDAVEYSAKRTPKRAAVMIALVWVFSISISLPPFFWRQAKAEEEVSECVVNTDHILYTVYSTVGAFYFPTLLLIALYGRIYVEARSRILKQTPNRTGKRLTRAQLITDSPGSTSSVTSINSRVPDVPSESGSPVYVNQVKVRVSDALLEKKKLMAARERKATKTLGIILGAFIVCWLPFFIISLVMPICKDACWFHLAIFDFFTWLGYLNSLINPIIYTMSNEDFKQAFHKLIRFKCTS
Sodium-dependent serotonin transporter, sequence (P31645 whole entry): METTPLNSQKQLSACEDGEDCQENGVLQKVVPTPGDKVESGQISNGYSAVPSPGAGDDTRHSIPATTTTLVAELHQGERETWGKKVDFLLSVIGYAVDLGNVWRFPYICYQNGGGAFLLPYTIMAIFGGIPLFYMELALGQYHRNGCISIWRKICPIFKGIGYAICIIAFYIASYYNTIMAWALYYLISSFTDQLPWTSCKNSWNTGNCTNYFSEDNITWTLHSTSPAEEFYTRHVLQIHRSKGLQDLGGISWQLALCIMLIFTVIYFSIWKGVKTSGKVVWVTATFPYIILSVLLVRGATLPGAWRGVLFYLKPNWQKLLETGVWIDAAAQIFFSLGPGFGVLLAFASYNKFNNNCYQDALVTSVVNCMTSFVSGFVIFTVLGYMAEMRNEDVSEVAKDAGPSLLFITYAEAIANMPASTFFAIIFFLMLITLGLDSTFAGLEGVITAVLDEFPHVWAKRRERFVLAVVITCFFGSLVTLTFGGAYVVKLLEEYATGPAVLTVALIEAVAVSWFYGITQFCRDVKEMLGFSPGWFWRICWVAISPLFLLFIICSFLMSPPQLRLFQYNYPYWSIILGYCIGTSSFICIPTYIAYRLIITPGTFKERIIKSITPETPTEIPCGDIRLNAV

SMILES: CCC(NC)C(=O)c1ccc2occc2c1 (single isomer, unassigned; form 1) [US20250019357, Compound (+)-BK-5MBPB]
- EC50 [1]: > 30000 nM

SMILES: CNC(C)C(=O)c1ccc2occc2c1 (single isomer, unassigned; form 1) [US20250019357, Compound (-)-BK-5MAPB]
- EC50 [1]: 77.7 nM

SMILES: CNC(C)C(=O)c1ccc2occc2c1 (single isomer, unassigned; form 2) [US20250019357, Compound (+)-BK-5MAPB]
- EC50 [1]: 3070 nM

SMILES: CNC(C)C(=O)c1ccc2ccoc2c1 (single isomer, unassigned; form 2) [US20250019357, Compound (+)-BK-6MAPB]
- EC50 [1]: > 10000 nM

SMILES: CCC(NC)C(=O)c1ccc2occc2c1 (single isomer, unassigned; form 2) [US20250019357, Compound (-)-BK-5MBPB]
- EC50 [1]: 6610 nM

SMILES: CC[C@H](Cc1ccc2ccoc2c1)NC [US20250019357, Compound R-6-MBPB]
- EC50 [2]: 172 nM

SMILES: CC[C@H](Cc1ccc2ccoc2c1)NC [US20250019357, Compound R-(-)-6-MBPB]
- IC50 [3]: 5700 nM
- Ki [3]: 2600 nM

SMILES: CC[C@@H](Cc1ccc2ccoc2c1)NC [US20250019357, Compound S-6-MBPB]
- EC50 [2]: 54.1 nM

SMILES: CC[C@@H](Cc1ccc2ccoc2c1)NC [US20250019357, Compound S-(+)-6-MBPB]
- IC50 [3]: 2700 nM
- Ki [3]: 1200 nM

Reference: BindingDB's records for patent US20250019357 (Tactogen, 2025)
